Consider ten compounds from patent US20040198795A1, “Substituted imidazoliums and methods of use therefor” (priority 1996, published 2004).

What is called melting point is the temperature of the solid-liquid transition. For orientation: IC50 means the point on the concentration scale where inhibition reaches its midpoint. Lower therefore signals inhibition by little substance.

For data set [1], the target named is T1, AGE-BSA previously crosslinked to the collagen (Bos taurus, UniProt P02769).
T1 construct: Bovine Serum Albumin (Type V), (BSA) Calbiochem; purchased Calbiochem (BSA, Type V); Collaborative Biomedical Products (Biocoat collagen plates)
T1 sequence (P02769 25-607): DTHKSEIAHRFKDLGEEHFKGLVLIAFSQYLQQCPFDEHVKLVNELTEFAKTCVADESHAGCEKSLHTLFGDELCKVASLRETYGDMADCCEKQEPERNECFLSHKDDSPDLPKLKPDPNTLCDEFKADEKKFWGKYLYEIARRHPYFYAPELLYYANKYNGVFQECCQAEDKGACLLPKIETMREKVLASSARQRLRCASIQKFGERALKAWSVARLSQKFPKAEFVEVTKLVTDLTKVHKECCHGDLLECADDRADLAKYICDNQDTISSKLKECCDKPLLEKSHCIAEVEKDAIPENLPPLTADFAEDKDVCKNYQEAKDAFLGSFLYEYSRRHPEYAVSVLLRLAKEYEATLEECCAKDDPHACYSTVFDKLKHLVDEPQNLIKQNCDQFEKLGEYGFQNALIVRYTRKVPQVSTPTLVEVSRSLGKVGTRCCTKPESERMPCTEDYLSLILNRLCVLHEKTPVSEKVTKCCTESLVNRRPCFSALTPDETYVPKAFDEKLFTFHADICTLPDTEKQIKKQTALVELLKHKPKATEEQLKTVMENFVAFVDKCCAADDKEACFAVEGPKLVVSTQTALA
In words: Sandwich enzyme immunoassay for breaking of AGE-BSA cross-linked to collagen. Particulars: 10 mM, 16 hours, 37° C.; for % breaking, Pr AbαAGE: primary antibody anti-AGE-RNase; for % breaking, PrAbαBSA: primary antibody anti-BSA. The format is biochemical. How it is done:
In order to ascertain the ability of the compounds of the instant invention to “break” or reverse already formed advanced glycosylation endproducts, a novel sandwich enzyme immunoassay was developed which detects breaking of AGE (Advanced glycosylation endproduct) moieties from AGE-crosslinked protein. […] Following an incubation period of 16 hours (37° C.) cross-link-breaking is detected using an antibody raised against AGE-ribonuclease or with an antibody against BSA. […] Details of the assay are as follows:
1. AGE-BSA stock solutions were prepared as follows. Sodium phosphate buffer (0.4 M) was prepared by dissolving 6 grams of monobasic sodium phosphate in 100 ml of distilled water, 7 grams of dibasic sodium phosphate (0.4 M) in 100 ml of distilled water and adjusting the pH of the dibasic solution to 7.4 with the monobasic solution. Sodium azide (0.02 grams) was added per 100 ml volume to inhibit bacterial growth. The BSA solution was prepared as follows: 400 mg of Type V BSA (bovine serum albumin) was added for each ml of sodium phosphate buffer (above). A 400 mM glucose solution was prepared by dissolving 7.2 grams of dextrose in 100 ml of sodium phosphate buffer (above). The BSA and glucose solutions were mixed 1:1 and incubated at 37° C. for 12 weeks. The pH of the incubation mixture was monitored weekly and adjusted to pH 7.4 if necessary. After 12 weeks, the AGE-BSA solution was dialyzed against PBS for 48 hours with four buffer changes, each at a 1:500 ratio of solution to dialysis buffer.
2. Working solutions for crosslinking and breaking studies were prepared as follows. Test compounds were dissolved in PBS and the pH was adjusted to pH 7.4 if necessary. […] The concentration of AGE-BSA necessary to achieve the optimum sensitivity was determined by initial titration of each lot of AGE-BSA.
1. Biocoat plates were blocked with 300 μl of “Superbloc”. Plates were blocked for one hour at room temperature and were washed with PBS-Tween three times with the Dynatech platewasher before addition of test reagents.
2. Each experiment was set up in the following manner. The first three wells of the Biocoat plate were used for the reagent blank. Fifty microliters of solutions AGE-BSA were added to test wells in triplicate and only PBS in blank wells.

Data set [2] deals with AGE receptor on macrophages (RAW 264.7 cells). In words: Radioligand binding assay for upregulation of the AGE receptor on macrophages. Particulars: iodinated AGE-BSA. The format is cell-based. How it is done: To study the effects of test compounds on the upregulation of the AGE receptor on macrophages, the following radioligand binding assay was utilized.
2. One day prior to assay, 1.0 ml of cells are plated per well onto 24 well culture plates at a concentration of 0.75×10^6 cells per ml.
4. […] One ml of the ligand mixture is added to the appropriate wells and the plates are place at 4° C. on a rocking platform for four hours.
6. To each well is added 1.0 ml of 1.0 N sodium hydroxide for fifteen to thirty minutes. The disrupted cells are removed using a cotton tipped swab. After placing the swab in the appropriate tube for gamma counting, the medium remaining in each well is collected and added to the tubes containing the swabs. Each well is washed twice with 0.5 ml of 1.0 N sodium hydroxide which is then added to the appropriate tubes.
7. The samples are counted in an LKB gamma counter and the final numbers are used to determine the percent specific binding as well as the Ka, the Kd and the number of receptors per cell.

In data set [3] the target is cross-linking of glycated bovine serum albumin (AGE-BSA) to the rat tail tendon collagen (Bos taurus, UniProt P02769). Kind of data set: Inhibition of cross-linking of AGE-BSA to rat tail tendon collagen coated plate (ELISA). Particulars: for % Inh.: at 10 mM, PBS pH 7.4, 37° C., 4 hours. How it is done: The following method was used to evaluate the ability of the compounds of the present invention to inhibit the cross-linking of glycated bovine serum albumin (AGE-BSA) to the rat tail tendon collagen coated 96-well plate.
Chain of cross-linking of glycated bovine serum albumin (AGE-BSA) to the rat tail tendon collagen (P02769 25-607): as above
The glycated BSA was then extensively dialyzed against phosphate buffer solution (PBS) for 48 hours with additional 5 times buffer exchanges. […] The blocking solution was removed from the wells by washing the plate twice with PAS-Tween 20 solution (0.05% Tween 20) using a NUNC-multiprobe or Dynatech ELISA-plate washer. […] The unbrowned BSA in PBS buffer with or without testing compound were added to the separate wells as the blanks. The uncross-linked AGE-BSA was then removed by washing the wells three times with PBS-Tween buffer. The cross-linked AGE-BSA to the tail tendon coated plate was then quantitated by the polyclonal antibody raised against AGE-RNase. After a one-hour incubation period, AGE antibody was removed by washing 4 times with PBS-Tween.
The bound AGE antibody was then detected with the addition of horseradish peroxidase-conjugated secondary antibody, e.g., goat anti-rabbit immunoglobulin and incubation for 30 minutes. […] The reaction was allowed for an additional 15 minutes and the absorbance was read at 410 nm in a Dynatech plate reader.
The % inhibition of each test compound was calculated as follows.
In general terms: An ELISA detects its analyte on a solid surface through an enzyme-linked reagent.

The test system of data set [4] is aortic wall protein cross-linking. The settings on record: diabetic rats; cited from earlier work.
For data set [5], the system named is immunoglobulin trapping in the kidney. The settings on record: Brownlee et al. 1986; cited from earlier work.
Data set [6] deals with glomerular basement membrane thickness. The settings on record: streptozotocin-diabetic rat model; cited from earlier work.
A further data set has as its system red blood cells. The settings on record: in vivo; cited from earlier work.
Data set [7] deals with fixed protein (gelatin, i.e., collagen) surface. In words: Surface browning experiment on gelatin/paper disks with glucose-6-phosphate. The settings on record: Peridex at final 0.04% chlorhexidine, 100 Mm glucose-6-phosphate, one week at 50° C., pH 7.4. How it is done: To further study the ability of inhibitors of nonenzymatic browning to prevent the discoloration of protein on a surface, such as that which occurs on the tooth surface, the following surface browning experiment is performed. As a substitute for a pellicle-covered tooth surface, unexposed and developed photographic paper is used to provide a fixed protein (gelatin, i.e., collagen) surface on a paper backing. Five millimeter circles are punched and immersed for one week at 50° C. in a solution of 100 Mm glucose-6-phosphate in a 0.5 M phosphate buffer, pH 7.4, containing 3 Mm sodium azide. Glucose-6-phosphate is a sugar capable of participating in nonenzymatic browning at a more rapid rate than glucose. In addition to the glucose-6-phosphate, chlorhexidine and/or a compound of Formula I are included. After incubation, the gelatin/paper disks are rinsed with water, observed for brown color, and photographed.

For data set [8] the following is noted: Nordbo 1979; cited from earlier work.

In turn, `Cn1cc[n+](CC(N)=O)c1.[Br-]` came in with a melting point of 183 to 185 °C.
In turn, `Cn1cc[n+](CC(=O)c2ccccc2)c1.[Br-]` had a melting point of 108 to 110 °C.
Turning to “1-methyl-3-[2-(3′-methoxyphenyl)-2-oxoethyl]-imidazolium bromide”, in [1], the “% breaking, Pr AbαAGE” value is 20% and the “% breaking, PrAbαBSA” value was 24%. Besides, in data set [2], the “Specific Binding Expressed as % Control, Day 1” value is listed as 125%; the “Specific Binding Expressed as % Control, Day 2” value amounted to 132%; the “Specific Binding Expressed as % Control, Day 3” value was found to be 143%; the “Specific Binding Expressed as % Control, Day 4” value worked out at 360%.
Regarding `CCOC(=O)CCCCCn1cc[n+](CC(=O)c2cccc(OC)c2)c1.[Br-]` [1-(ethoxycarbonylpentyl)-3-[2-(3′-methoxyphenyl)-2-oxoethyl]-imidazolium bromide], the “% Inh.” value in [3] worked out at 40%.
In [3] (rat, 4 h, pH 7.4), `CCN(CC)c1ccc(C(=O)Cn2cc[n+](C)c2)cc1` [1-Methyl-3-[2-(4′-diethylaminophenyl)-2-oxo-ethyl]-imidazolium bromide] showed a half-maximal inhibitory concentration (IC50) of 1750 µM. In [1], the “% breaking, Pr AbαAGE” value is given as 32% and the “% breaking, PrAbαBSA” value amounted to 28%.
In the case of `Cn1cc[n+](CC(=O)c2ccc(Br)cc2)c1.[Br-]` [1-methyl-3-[2-(4′-bromophenyl)-2-oxoethyl]-imidazolium bromide], the “% Inh.” value in data set [3] amounted to 23%.
Consider `COc1ccc(C(=O)C[n+]2ccn(C)c2)cc1.[Br-]` [1-methyl-3-[2-(4′-methoxyphenyl)-2-oxoethyl]-imidazolium bromide], for which, in data set [1], the “% breaking, Pr AbαAGE” value is reported as 38% and the “% breaking, PrAbαBSA” value was found to be 27%. Besides, in data set [2], the “Specific Binding Expressed as % Control, Day 1” value was 185%; the “Specific Binding Expressed as % Control, Day 2” value came out at 132%; the “Specific Binding Expressed as % Control, Day 3” value is listed as 145%; the “Specific Binding Expressed as % Control, Day 4” value worked out at 423%.
In the case of `N=C(N)NN` [aminoguanidine], the “Aortic wall protein cross-linking” value in data set [4] is on record as “diminishes aortic wall protein cross-linking”. Moreover, the “Immunoglobulin trapping in the kidney” value in data set [5] is recorded as “reduction of immunoglobulin trapping in the kidney”. Besides, the “Increased glomerular basement membrane thickness” value in data set [6] is given as “prevented”. Moreover, the “Diabetes-induced changes in the deformability of red blood cells” value with red blood cells is listed as “prevent it”.
For `[H]/N=C(\N/C(=N/[H])NCCCCCCNC(=N)NC(=N)Nc1ccc(Cl)cc1)Nc1ccc(Cl)cc1` [chlorhexidine], the “Brown color of gelatin/paper disks” value in [7] is recorded as “significant browning”. Also, the “Effect on browning reactions in vitro” value in [8] is given as “catalyze browning reactions”.
Consider benzalkonium chloride, for which, in data set [8], the “Effect on browning reactions in vitro” value is on record as “catalyze browning reactions”.
